≈ marks a conversion by molar mass, not a printed value. Structures can show the parent of a compound that is named as a salt.
What was measured:
[1] = system: E. coli RNase P RNA, M1 RNA; assay: Inhibition of bacterial RNase P activity, IC50 determination (cleavage of pATSerUG by M1 RNA); assay type: biochemical; settings: NI: No inhibition
[2] = system: Escherichia coli (ATCC25922); assay: MIC, broth microdilution (CLSI), Escherichia coli; settings: Escherichia coli, ATCC25922, read-out: E. coli ATCC 25922 MIC, Table XIII
[3] = system: Staphylococcus aureus (ATCC25923); assay: MIC, broth microdilution (CLSI), Staphylococcus aureus ATCC25923; settings: Staphylococcus aureus, ATCC25923, read-out: S. aureus ATCC 25923 MIC

Compound | IC50 [1] [µM] | MIC [2] [µg/mL] | MIC [3] [µg/mL]
Cl.N[C@H]1CC[C@H](NC(=O)c2cn(CC3CCCCC3)c3ccc(Br)cc23)CC1 [Compound 268, N-((1R,4R)-4-aminocyclohexyl)-5-bromo-1-(cyclohexylmethyl)-1H-indole-3-carboxamide hydrochloride salt] | 59 | 30 | 15
Cc1cccc(C(CC(=O)NC2CCC(N)CC2)c2cn(CC3CCCCC3)c3ccc(O)cc23)c1.Cl [Compound 165, N-((1S,4S)-4-aminocyclohexyl)-3-(1-(cyclohexylmethyl)-5-hydroxy-1H-indol-3-yl)-3-(m-tolyl)propanamide hydrochloride salt] | 18 | 67 | 34
Cl.N[C@H]1CC[C@H](NC(=O)CCc2cn(CC3CCCCC3)c3ccc(-c4ccccc4OC(F)(F)F)cc23)CC1 [Compound 231, N-((1R,4R)-4-aminocyclohexyl)-3-(1-(cyclohexylmethyl)-5-(2-(trifluoromethoxy)phenyl)-1H-indol-3-yl) propanamide hydrochloride salt] | 4.4 | > 512 | 5
Cc1cccc(C(CC(=O)NC2CCC(N)CC2)c2cn(CC3CCNCC3)c3ccccc23)c1 [Compound 159, N-((1S,4S)-4-aminocyclohexyl)-3-(1-(piperidin-4-ylmethyl)-1H-indol-3-yl)-3-(m-tolyl)propanamide hydrochloride salt] | 210 | > 512 | 279
Cl.c1ccc2c(CCNCC3CCCC3)c[nH]c2c1 [Compound 20, N-(cyclopentylmethyl)-2-(1H-indol-3-yl)ethan-1-amine hydrochloride salt] | 4140 | > 512 | > 512
Cc1cccc(C(CC(=O)NC2CCNCC2)c2cn(CC3CCCCC3)c3ccc(Br)cc23)c1.Cl (stereo not drawn) [Compound 121, 3-(5-bromo-1-(cyclohexylmethyl)-1H-indol-3-yl)-N-(piperidin-4-yl)-3-(m-tolyl) propanamide hydrochloride salt] | 8 | 256 | 8
Cc1cccc(C(CC(=O)NC[C@H]2CC[C@H](CN)CC2)c2cn(CC3CCCCC3)c3ccccc23)c1.Cl (stereo partly drawn) [Compound 166, N-(((1S,4S)-4-(aminomethyl)cyclohexyl)methyl)-3-(1-(cyclohexylmethyl)-1H-indol-3-yl)-3-(m-tolyl)propanamide hydrochloride salt] | 7 | 275 | 9
NC1CCC(NCCC(c2cccc(F)c2)c2cn(CC3CCCCC3)c3ccccc23)CC1 [Compound 172, (1S,4S)-N1-(3-(1-(cyclohexylmethyl)-1H-indol-3-yl)-3-(3-fluorophenyl)propyl) cyclohexane-1,4-diamine hydrochloride salt] | 10 | 4 | 4
Cc1cccc(-c2ccc3c(c2)c(CCCN[C@H]2CC[C@H](N)CC2)cn3CC2CCCCC2)c1 [Compound 207, (1R,4R)-N1-(3-(1-(cyclohexylmethyl)-5-(m-tolyl)-1H-indol-3-yl)propyl)cyclohexane-1,4-diamine hydrochloride salt] | 17 | 4 | 4
Cc1cccc(C(CC(=O)NC2CCCC(N)C2)c2cn(CC3CCCCC3)c3ccccc23)c1.Cl (stereo not drawn) [Compound 178, N-(3-aminocyclohexyl)-3-(1-(cyclohexylmethyl)-1H-indol-3-yl)-3-(m-tolyl)propanamide hydrochloride salt] | 20 | 65 | 8
Cc1cccc(C(CC(=O)NC2CCNCC2)c2cn(Cc3ccccc3)c3ncccc23)c1.Cl (stereo not drawn) [Compound 70, 3-(1-benzyl-1H-pyrrolo[2,3-b]pyridin-3-yl)-N-(piperidin-4-yl)-3-(m-tolyl)propanamide hydrochloride salt] | 1090 | > 512 | 250
Cl.N[C@H]1CC[C@H](NC(=O)CC(c2cccc(Cl)c2)c2cn(CC3CCCCC3)c3ccccc23)CC1 (stereo partly drawn) [Compound 135, N-((1r,4r)-4-aminocyclohexyl)-3-(3-chlorophenyl)-3-(1-(cyclohexylmethyl)-1H-indol-3-yl)propanamide hydrochloride salt] | 8 | 256 | 4
Cc1cccc(C(CC(=O)NC2CCNCC2)c2cn(CC3CCC(F)(F)CC3)c3ccc(Br)cc23)c1.Cl (stereo not drawn) [Compound 287, 3-(5-bromo-1-((4,4-difluorocyclohexyl)methyl)-1H-indol-3-yl)-N-(piperidin-4-yl)-3-(m-tolyl)propanamide hydrochloride salt] | 15 | 78 | 10
NC1CCC(NC(=O)CC(c2cnc3ccccc3c2)c2cn(CC3CCCCC3)c3ccccc23)CC1 [Compound 142, N-((1S,4S)-4-aminocyclohexyl)-3-(1-(cyclohexylmethyl)-1H-indol-3-yl)-3-(quinolin-3-yl)propanamide hydrochloride salt] | 44 | 32 | 8
Cc1cccc(C(CC(=O)N[C@H]2CC[C@H](N)CC2)c2cn(CC3CC3)c3ccccc23)c1.Cl (stereo partly drawn) [Compound 124, N-((1R,4R)-4-aminocyclohexyl)-3-(1-(cyclopropylmethyl)-1H-indol-3-yl)-3-(m-tolyl)propanamide hydrochloride salt] | 149 | 256 | 128
COc1cccc(C(CC(=O)NCCC2CCNCC2)c2cn(Cc3ccccc3)c3ccccc23)c1.Cl (stereo not drawn) [Compound 68, 3-(1-benzyl-1H-indol-3-yl)-3-(3-methoxyphenyl)-N-(2-(piperidin-4-yl)ethyl)propanamide hydrochloride salt] | 201 | > 512 | 68
COc1cc(C)cc(C(CC(=O)N[C@H]2CC[C@H](N)CC2)c2cn(CC3CCCCC3)c3ccccc23)c1.Cl (stereo partly drawn) [Compound 133, N-((1R,4R)-4-aminocyclohexyl)-3-(1-(cyclohexylmethyl)-1H-indol-3-yl)-3-(3-methoxy-5-methylphenyl) propanamide hydrochloride salt] | 76 | > 512 | > 512
COc1ccc2c(c1)c(C(CC(=O)NC1CCC(N)CC1)c1cccc(C)c1)cn2CC1CCCCC1.Cl [Compound 151, N-((1S,4S)-4-aminocyclohexyl)-3-(1-(cyclohexylmethyl)-5-methoxy-1H-indol-3-yl)-3-(m-tolyl)propanamide hydrochloride salt] | 45 | 128 | 16
Cc1cccc(C(CC(=O)NC2CCC(N)CC2)c2cn(CC3CCCCC3)c3ccc(C#N)cc23)c1.Cl [Compound 236, N-((1S,4S)-4-aminocyclohexyl)-3-(5-cyano-1-(cyclohexylmethyl)-1H-indol-3-yl)-3-(m-tolyl)propanamide hydrochloride salt] | 20 | 68 | 9
Cc1cccc(C(CCN[C@H]2CC[C@H](O)CC2)c2cn(CC3CCCCC3)c3ccccc23)c1.Cl (stereo partly drawn) [Compound 218, (1R,4R)-4-((3-(1-(cyclohexylmethyl)-1H-indol-3-yl)-3-(m-tolyl)propyl)amino) cyclohexan-1-ol hydrochloride salt] | 45 | > 512 | 8
Cc1cccc(C(CC(=O)NCC2CCNCC2)c2cn(Cc3ccccc3)c3ncccc23)c1.Cl (stereo not drawn) [Compound 69, 3-(1-benzyl-1H-pyrrolo[2,3-b]pyridin-3-yl)-N-(piperidin-4-ylmethyl)-3-(m-tolyl)propanamide hydrochloride salt] | 825 | > 512 | > 512
COc1ccccc1-c1ccc2c(c1)c(C(CCN[C@H]1CC[C@H](N)CC1)c1cccc(C)c1)cn2CC1CCCCC1 (stereo partly drawn) [Compound 229, (1R,4R)-N1-(3-(1-(cyclohexylmethyl)-5-(2-methoxyphenyl)-1H-indol-3-yl)-3-(m-tolyl)propyl)cyclohexane-1,4-diamine hydrochloride salt] | 5.4 | 20 | 3
Cc1cccc(C(CC(=O)NC2CCC(N)CC2)c2cn(CC3CCCCC3)c3c(Br)cccc23)c1.Cl [Compound 174, N-((1S,4S)-4-aminocyclohexyl)-3-(7-bromo-1-(cyclohexylmethyl)-1H-indol-3-yl)-3-(m-tolyl)propanamide hydrochloride salt] | 32 | > 512 | 150
CCOP(=O)(NC1CCC(NC(=O)CC(c2cccc(C)c2)c2cn(CC3CCCCC3)c3ccccc23)CC1)OCC (stereo not drawn) [Compound 226, diethyl ((1s,4s)-4-(3-(1-(cyclohexylmethyl)-1H-indol-3-yl)-3-(m-tolyl)propanamido)cyclohexyl) phosphoramidate] | 28.5 | > 512 | 311 (≈ 512 µM)
Cl.O=C(Cc1cn(CC2CCC(F)(F)CC2)c2ccc(Br)cc12)NC1CCNCC1 [Compound 277, 2-(5-bromo-1-((4,4-difluorocyclohexyl)methyl)-1H-indol-3-yl)-N-(piperidin-4-yl)acetamide hydrochloride salt] | 229 | 129 | 65
Cc1cccc(C(CC(=O)NC2CCC(N)CC2)c2cn(CC3CCCCC3)c3ccc(-c4ccccc4Cl)cc23)c1.Cl [Compound 224, N-((1S,4S)-4-aminocyclohexyl)-3-(5-(2-chlorophenyl)-1-(cyclohexylmethyl)-1H-indol-3-yl)-3-(m-tolyl)propanamide hydrochloride salt] | 2.9 | 82 | 5
Cl.N[C@H]1CC[C@H](NC(=O)CC(c2ccc(F)c(F)c2)c2cn(CC3CCCCC3)c3ccccc23)CC1 (stereo partly drawn) [Compound 134, N-((1R,4R)-4-aminocyclohexyl)-3-(1-(cyclohexylmethyl)-1H-indol-3-yl)-3-(3,4-difluorophenyl)propanamide hydrochloride salt] | 19 | 256 | 4

Source: patent publication US20210246115A1 (Bioimics AB, priority 2017, published 2021)
